Reference: publication PMC9578396, “Intrinsic Antibacterial Activity of Xeruborbactam In Vitro: Assessing Spectrum and Mode of Action” (Antimicrobial Agents and Chemotherapy, 2022)
Converted amounts (≈) assume the structure as drawn. “And” between values parts separate entries of the source, which are not always exact repeats. Equal entries are not always repeated. Where two headings read alike, the source gives them in different places.

Key:
Type in all cases: cell-based
Acinetobacter baumannii = assay: Broth microdilution MIC (CLSI), Acinetobacter baumannii
Procedure, shortened: (§1)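 MICs by CLSI broth microdilution in in-house panels. Strains tested were engineered strains carrying porin and efflux mutation combinations, KPC-producing clinical isolates and derivatives cured of KPC plasmids, and KPC-producing clinical isolates enriched for porin mutations.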

Streptococcus pneumoniae = assay: MIC, Streptococcus pneumoniae; settings: Streptococcus pneumoniae; for MIC: read-out: MIC
Description: Bacterial isolates were subjected to broth microdilution susceptibility testing, performed according to Clinical and Laboratory Standards Institute (CLSI) methods ([46]), using panels prepared in-house. Meropenem was purchased from Sandoz, and all other antibiotics were from Sigma-Aldrich. Xeruborbactam was synthesized at Qpex Biopharma, San Diego, CA. Avibactam was purchased from eNovation Chemicals LLC, Bridgewater, NJ, USA; zidebactam was from MedKoo Biosciences, Inc., Morrisville, NC, and nacubactam was from Advanced ChemBlocks, Hayward, CA. Durlobactam was synthesized at Acme Bioscience, Palo Alto, CA, USA.

Klebsiella pneumoniae = assay: microbe, parasite or virus in culture; settings: for MIC90: read-out: MIC90
Procedure, shortened: as §1

[1] = Carbapenem-resistant Acinetobacter baumannii, 505 isolates
[2] = Klebsiella pneumoniae, 575 isolates
[3] = Klebsiella pneumoniae, K. pneumoniae CRE, 418 isolates
[4] = Klebsiella pneumoniae, K. pneumoniae CRE, KPC, 163 isolates
[5] = Klebsiella pneumoniae, K. pneumoniae CRE, OXA-48-like, 89 isolates
[6] = Klebsiella pneumoniae, K. pneumoniae CRE, metallo-beta-lactamase, 126 isolates
[7] = Klebsiella pneumoniae, K. pneumoniae CRE, non-carbapenemase producing, 40 isolates
[8] = Klebsiella pneumoniae, K. pneumoniae ESBL phenotype, 157 isolates
[9] = Klebsiella pneumoniae, KPC-producing clinical strains with functional OmpK36, alone

## O=C(O)c1c(F)ccc2c1OB(O)[C@@H]1C[C@H]21 [Xeruborbactam]
Acinetobacter baumannii; Acinetobacter baumannii ACM1320 (ATCC 17978)
  MIC: 16 µg/mL
Acinetobacter baumannii; Acinetobacter baumannii ACM1320 (ATCC 17978), read-out: MIC
  MIC: 72 µM
Acinetobacter baumannii; Acinetobacter baumannii, 505 isolates of carbapenem-resistant A. baumannii, read-out: modal MIC
  MIC: 32 µg/mL
Acinetobacter baumannii; Acinetobacter baumannii, AB1007 (no beta-lactamase), xeruborbactam 0 µg/ml, read-out: MIC
  MIC: 16 µg/mL
Acinetobacter baumannii; Acinetobacter baumannii, ATCC17978, Acinetobacter baumannii ACM1320 (ATCC 17978), read-out: MIC
  MIC: 72 µM and 16 µg/mL
Acinetobacter baumannii; Acinetobacter baumannii, ATCC17978, strain ATCC 17978 (Fig. 6), read-out: MIC
  MIC: 16 µg/mL
Acinetobacter baumannii; Acinetobacter baumannii, pumpless strain of A. baumannii, read-out: MIC
  MIC: 18 µM and 4 µg/mL
Acinetobacter baumannii; Acinetobacter baumannii, strain AB1007, wild type, read-out: MIC
  MIC: 16 µg/mL
Acinetobacter baumannii; Acinetobacter baumannii, strain ACM1013, ΔadeIJK
  MIC: 4 µg/mL
Acinetobacter baumannii; Acinetobacter baumannii, strain ACM1014, ΔadeABC
  MIC: 16 µg/mL
Acinetobacter baumannii; Acinetobacter baumannii, strain ACM1015, ΔadeIJK ΔadeABC
  MIC: 4 µg/mL
Acinetobacter baumannii; Acinetobacter baumannii, strain ACM1027, adeN (AdeIJK overexpression)
  MIC: 32 µg/mL
Acinetobacter baumannii; Acinetobacter baumannii, strain ACM1030, adeS (AdeABC overexpression)
  MIC: 16 µg/mL
Acinetobacter baumannii; Acinetobacter baumannii, strain AB1007, read-out: MIC
  MIC: 16 µg/mL
Acinetobacter baumannii; [1]
  MIC50: 16 µg/mL
  MIC90: 64 µg/mL
Acinetobacter baumannii; adeIJK inactivation
  fold MIC decrease: 4 fold
Acinetobacter baumannii; adeIJK overexpression
  fold MIC increase: 2 fold
Streptococcus pneumoniae; sp001
  MIC: 8 µg/mL (≈ 36 µM)
Streptococcus pneumoniae; sp002
  MIC: 4 µg/mL (≈ 18 µM)
Streptococcus pneumoniae; sp003
  MIC: 4 µg/mL (≈ 18 µM)
Streptococcus pneumoniae; sp004
  MIC: > 32 µg/mL
Streptococcus pneumoniae; sp005
  MIC: 16 µg/mL (≈ 72.1 µM)
Streptococcus pneumoniae; sp006
  MIC: 32 µg/mL (≈ 144 µM)
Streptococcus pneumoniae; sp007
  MIC: 16 µg/mL (≈ 72.1 µM)
Streptococcus pneumoniae; sp008
  MIC: 32 µg/mL (≈ 144 µM)
Streptococcus pneumoniae; sp009
  MIC: 32 µg/mL (≈ 144 µM)
Streptococcus pneumoniae; sp117
  MIC: > 32 µg/mL
Streptococcus pneumoniae; sp118
  MIC: > 32 µg/mL
Streptococcus pneumoniae; sp119
  MIC: 32 µg/mL (≈ 144 µM)
Streptococcus pneumoniae; sp120
  MIC: 32 µg/mL (≈ 144 µM)
Streptococcus pneumoniae; sp121
  MIC: 32 µg/mL (≈ 144 µM)
Streptococcus pneumoniae; sp122
  MIC: > 32 µg/mL
Streptococcus pneumoniae; sp123
  MIC: > 32 µg/mL
Streptococcus pneumoniae; sp125
  MIC: 32 µg/mL (≈ 144 µM)
Streptococcus pneumoniae; sp126
  MIC: > 32 µg/mL
Streptococcus pneumoniae; S. pneumoniae strains, n = 18
  MIC50: 32 µg/mL (≈ 144 µM)
  MIC90: > 32 µg/mL
Klebsiella pneumoniae; 228 isolates with the full-length OmpK36
  isolates with MIC values in an 8- to 16-μg/mL range: ~ 95%
Klebsiella pneumoniae; K. pneumoniae ESBL phenotype, 157 isolates
  MIC range: 4 to 32 µg/mL
Klebsiella pneumoniae; K. pneumoniae clinical isolates, OmpK36 full length (n=228)
  percentage of strains with xeruborbactam MIC values ≥32 µg/ml: 5.3%
Klebsiella pneumoniae; Klebsiella pneumoniae KPM1001 (ATCC 49816)
  MIC: 16 µg/mL
Klebsiella pneumoniae; Klebsiella pneumoniae KPM1001 (ATCC 49816), read-out: MIC
  MIC: 72 µM
Klebsiella pneumoniae; [2]
  MIC50: 16 µg/mL
  MIC90: 32 µg/mL
Klebsiella pneumoniae; Klebsiella pneumoniae, ATCC49816, Klebsiella pneumoniae KPM1001 (ATCC 49816), read-out: MIC
  MIC: 72 µM and 16 µg/mL
Klebsiella pneumoniae; Klebsiella pneumoniae, BAA2814, KPC-3-producing KP1074 (BAA-2814), xeruborbactam none, read-out: MIC
  MIC: 16 to 32 µg/mL
Klebsiella pneumoniae; [3]
  MIC50: 16 µg/mL
  MIC90: 32 µg/mL
Klebsiella pneumoniae; [4]
  MIC50: 16 µg/mL
  MIC90: 32 µg/mL
Klebsiella pneumoniae; [5]
  MIC50: 16 µg/mL
  MIC90: 64 µg/mL
Klebsiella pneumoniae; [6]
  MIC50: 16 µg/mL
  MIC90: 32 µg/mL
Klebsiella pneumoniae; [7]
  MIC50: 16 µg/mL
  MIC90: 32 µg/mL
Klebsiella pneumoniae; [8]
  MIC50: 16 µg/mL
  MIC90: 16 µg/mL
Klebsiella pneumoniae; [9]
  MIC50: 16 µg/mL
  MIC90: > 16 µg/mL
